For the test, the target named is T1, OtsA (trehalose 6-phosphate synthase; OtsA-Strep) (Corynebacterium glutamicum, UniProt Q8NMF3).
T1 construct: gene Cgl2624; full-length OtsA with C-terminal Strep-tag kept (pASK-IBA3-otsA), expressed in E. coli BL21(DE3), Strep-Tactin purified, 53 kDa
T1 sequence (Q8NMF3 1-485): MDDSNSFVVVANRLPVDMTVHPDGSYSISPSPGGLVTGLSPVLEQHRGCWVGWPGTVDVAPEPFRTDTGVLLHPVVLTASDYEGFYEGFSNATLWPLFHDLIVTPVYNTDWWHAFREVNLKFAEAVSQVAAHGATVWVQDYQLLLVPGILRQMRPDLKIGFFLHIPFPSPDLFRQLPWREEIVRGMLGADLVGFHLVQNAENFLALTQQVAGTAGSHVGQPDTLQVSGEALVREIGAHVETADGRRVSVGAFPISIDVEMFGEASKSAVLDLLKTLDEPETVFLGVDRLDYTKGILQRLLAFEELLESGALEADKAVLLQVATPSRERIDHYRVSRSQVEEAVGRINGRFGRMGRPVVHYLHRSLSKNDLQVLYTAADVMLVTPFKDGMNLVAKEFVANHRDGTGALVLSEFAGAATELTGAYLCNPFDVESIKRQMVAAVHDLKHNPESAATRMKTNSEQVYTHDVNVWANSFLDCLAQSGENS
The test can be described thus: GC of trehalose after alkaline phosphatase treatment of trehalose-6-phosphate. It counts as biochemical. To be noted: co-substrate 3 mM glucose-6-phosphate; 10 mM Tris-maleate, 5 mM MgCl2, 0.05 mM EDTA, pH 7.5, 30 °C; 3 mM or 5 mM sugar nucleotide.

Take `Nc1ncnc2c1ncn2[C@@H]1O[C@H](COP(=O)(O)OP(=O)(O)O[C@H]2O[C@H](CO)[C@@H](O)[C@H](O)[C@H]2O)[C@@H](O)[C@H]1O` [ADP-glucose]: the specific activity result is listed as “C. glutamicum OtsA used UDP- as well as ADP-glucose as precursor for trehalose-phosphate synthesis”.

Values taken from PMC6004087, “Production of the compatible solute α-D-glucosylglycerol by metabolically engineered Corynebacterium glutamicum” (Microbial Cell Factories, 2018).
